Assay results taken from US20090036555A1, “Stabilization of iodine biocides” (priority 2005, published 2009).

Assay: Storage stability of IPBC in Dowanol TPM solution with cobalt dryer and stabilizer, IPBC amount by HPLC
Format: physicochemical
Conditions: solution in Dowanol TPM with 10% by weight IPBC, 5% by weight Octasoligen-Cobalt 8, 5% by weight stabilizer; for Amount of IPBC (2 weeks, 40° C.): after two weeks storage at 40° C.; for Amount of IPBC (start): at the beginning
Procedure: A solution is prepared in Dowanol TPM (tripropylene glycol methyl ether), containing 10% by weight of iodopropargyl butylcarbamate, 5% by weight of Octasoligen-Cobalt 8 (Borchers, Langenfeld, Germany) and 5% by weight of the stabilizer specified in Table 1. The compositions are stored at 40° C. The amount of IPBC was determined by means of HPLC at the beginning and after two weeks.

| SMILES | Amount of IPBC (2 weeks, 40° C.) [%] | Amount of IPBC (start) [%] |
| --- | --- | --- |
| Cc1ccc(O)c(-n2nc3ccccc3n2)c1 [Example 4] | 9.3 | 9.9 |
| CC(C)(C)CC(C)(C)c1ccc(O)c(-n2nc3ccccc3n2)c1 [Example 3] | 9.5 | 9.9 |
| C=C(C)C(=O)OCCc1ccc(O)c(-n2nc3ccccc3n2)c1 [Example 2] | 9.3 | 9.9 |
| OCCc1ccc(O)c(-n2nc3ccccc3n2)c1 [Example 1] | 10.4 | 11.3 |
| CC(C)(C)c1ccc(O)c(-n2nc3ccccc3n2)c1 [Example 5] | 9.8 | 9.8 |
